Source: US20200131473A1, “METHOD OF GENERATING 2 CELL-LIKE STEM CELLS” (IFOM FONDAZIONE ISTITUTO FIRC DI ONCOLOGIA MOLECOLARE, priority 2017, published 2020)

Assays:
[1] = system: morula stage mouse embryos; assay: qPCR for 2C-embryo specific genes in APH-treated morula-stage mouse embryos; type: cell-based
Experimental: (§1) RNA was extracted using RNeasy mini kit (QIAGEN), quantified by NanoDrop spectrophotometer and cDNA was prepared from 2 μg total DNA-depleted RNA using SuperScript™ III reverse transcriptase kit (Invitrogen cat #18080-093) following manufacturer's instructions. qPCR assay performed based on standard protocol using 10× SsoFast™ EvaGreen® Supermix or later 1× LightCycler 480 SYBR Green I Master (Roche, 04707516001), 0.5 μM primer mix and 5 ng of cDNA. GAPDH was used as internal control to normalise the qPCR data following ΔΔCt method, 10 μM primer mix and a total amount of cDNA corresponding to 5 ng of starting RNA for each reaction.
Cryopreserved C57BL/6N morulae purchased from Janvier Labs (QUICKBLASTO®), were thawed according to the manufacturer's protocol. After recovery, a group of healthy morulae were treated with APH at final concentration of 1.5 μM in KSOM culture medium for 4 hrs while the rest were kept as control. The day after, the same number of morphologically healthy and synchronized blastocysts (22 and 7 blastocysts in the 1st and 2nd round, respectively) were selected from both groups. […] As the quantity of isolated RNA is not detectable by NanoDrop spectrophotometer, the supernatant was directly used for cDNA preparation following centrifugation at 10621 g for 2 minutes. cDNA preparation and qPCR were performed following the aforementioned protocols. […]

[2] = system: Nanog, Pou5f1 (Oct4), Sox2; assay: Immunostaining and qPCR for canonical pluripotency markers in ESCs; type: cell-based, mouse; details: upon APH treatment
Experimental: RNA was extracted using RNeasy mini kit (QIAGEN), quantified by NanoDrop spectrophotometer and cDNA was prepared from 2 μg total DNA-depleted RNA using SuperScript™ III reverse transcriptase kit (Invitrogen cat #18080-093) following manufacturer's instructions. qPCR assay performed based on standard protocol using […] SsoFast™ EvaGreen® Supermix or later 1× LightCycler 480 SYBR Green I Master (Roche, 04707516001), 0.5 μM primer mix and 5 ng of cDNA. GAPDH was used as internal control to normalise the qPCR data following ΔΔCt method, 10 μM primer mix and a total amount of cDNA corresponding to 5 ng of starting RNA for each reaction. […] Then, cells were incubated with primary antibody at 4° C. overnight, followed by washes and incubation with secondary antibody for an hour at room temperature. Next samples were mounted and images were acquired with wide field florescent microscope. Antibodies used in this study were Anti Oct-3/4 (Santa Cruz sc-5279), Anti Nanog (Abcam ab80892) and Plet-1 antibody (Nordic MUbio MUB1512P) and), Anti-GFP (Abcam, ab5450). Acquired figures were analyzed with ImageJ software.

pZscan4-Emerald ESCs [3] = assay: FACS for Emerald-GFP and CASPASE-3 (apoptosis); type: cell-based, mouse; details: mostly at high concentration
Excerpt: (§2) ESCs were fixed and permeabilized using Cytoperm/Cytofix kit (BD Biosciences), and subsequently stained for one hour at room temperature with Alexa Fluor® 647 anti-H2AX-Phosphorylated (Ser139) antibody (Biolegend) or P-CHK1-PE conjugated antibody (cell signaling 12268). Cells were washed and acquired on a FACS Calibur instrument or Attune NxT (Thermo Fisher Scientific). For Emerald-GFP acquisition, cells were trypsinized, collected and subsequently acquired without fixation. Cell cycle profiles were acquired after incubation with DAPI (4′,6-diamidino-2-phenylindole) overnight. For Caspase3 FACS analysis after fixation and permeabilization, Cleaved Caspase3 antibody were used for one hr at RT followed by washes and one hr incubation in donkey anti rabbit secondary antibody. […]

pZscan4-Emerald ESCs [4] = assay: Cell cycle analysis of ESCs; type: cell-based, mouse; details: APH 0.3 μM and 6 μM
Excerpt: as §2

ATR Seckel and WT ESCs = assay: In-vitro differentiation toward giant trophoblast-like cells; type: cell-based, mouse
Experimental: as §1
Then, cells were incubated with primary antibody at 4° C. overnight, followed by washes and incubation with secondary antibody for an hour at room temperature. Next samples were mounted and images were acquired with wide field florescent microscope. Antibodies used in this study were Anti Oct-3/4 (Santa Cruz sc-5279), Anti Nanog (Abcam ab80892) and Plet-1 antibody (Nordic MUbio MUB1512P) and), Anti-GFP (Abcam, ab5450). Acquired figures were analyzed with ImageJ software. […]

C[C@@]1(CO)[C@H](O)CC[C@@]2(C)[C@H]1CC[C@H]1C[C@@H]3C[C@@]12CC[C@]3(O)CO [APH, aphidicolin]
expression of 2C embryo specific markers Dux, MERVL and Gm4981 (qPCR) ([1]; morula-stage embryos treated with APH, blastocyst stage): activated the expression of several key 2C embryo specific markers | expression of 2C-embryo-specific genes Zscan4, Tcstv3, GM12794 and Eif1a (qPCR) ([1]; morula-stage embryos, APH 1.5 μM for 4 hrs, blastocysts analysed the day after): activate several key 2C-embryo-specific genes | Nanog, Pou5f1 (Oct4) protein in Zscan4 positive cells (immunostaining) [2]: mild downregulation | expression of pluripotency related genes at the transcriptional level ([2]; Sox2, Nanog, Pou5f1, Rex1): no significant alterations | cell apoptosis (CASPASE-3) (pZscan4-Emerald ESCs [3]): mild cell apoptosis | G2/M population in culture (pZscan4-Emerald ESCs [4]): neither at low (0.3 μM) nor at high (6 μM) concentrations could increase G2/M population | number of giant trophoblast-like cells (ATR Seckel and WT ESCs; APH treatment): more than three folds | giant trophoblast cell specific marker Prl2c2 (qPCR) in ATR activated condition (ATR Seckel and WT ESCs; wild type ESC treated with APH): highest expression
